Tests used:
[1] = biological target: GABA-A receptor; alpha-5/beta-3/gamma-2 (Homo sapiens) (UniProt P18507+P28472+P31644); experiment: Inhibition of human GABA alpha5beta3gamma2 receptor muscimol binding site at 10 uM relative to control; assay type: protein-complex assay
[2] = biological target: Alpha-2C adrenergic receptor (Homo sapiens) (UniProt P18825); experiment: Inhibition of human alpha2C adrenergic receptor at 10 uM relative to control
[3] = biological target: Delta-type opioid receptor (Homo sapiens) (UniProt P41143); experiment: Inhibition of human delta opioid receptor at 10 uM relative to control
[4] = biological target: Beta-2 adrenergic receptor (Homo sapiens) (UniProt P07550); experiment: Inhibition of human beta2 adrenergic receptor at 10 uM relative to control
Beta-2 adrenergic receptor (Homo sapiens), sequence (P07550 whole entry, looked up): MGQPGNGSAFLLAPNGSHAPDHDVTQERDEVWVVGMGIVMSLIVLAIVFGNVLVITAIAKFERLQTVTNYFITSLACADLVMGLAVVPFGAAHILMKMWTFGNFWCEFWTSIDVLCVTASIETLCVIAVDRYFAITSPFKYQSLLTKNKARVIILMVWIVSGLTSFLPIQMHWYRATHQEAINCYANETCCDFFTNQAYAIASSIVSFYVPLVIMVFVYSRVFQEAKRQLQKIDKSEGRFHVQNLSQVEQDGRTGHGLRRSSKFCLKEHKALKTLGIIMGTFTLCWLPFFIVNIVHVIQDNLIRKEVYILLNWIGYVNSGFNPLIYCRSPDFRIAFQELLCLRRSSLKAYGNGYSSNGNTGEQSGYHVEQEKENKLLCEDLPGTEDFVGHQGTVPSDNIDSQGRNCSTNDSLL

[5] = biological target: Inositol 1,4,5-trisphosphate-gated calcium channel ITPR1 (Rattus norvegicus) (UniProt P29994); experiment: Inhibition of rat IP3 receptor at 10 uM relative to control
[6] = biological target: Neutrophil elastase (Homo sapiens) (UniProt P08246); experiment: Inhibition of human neutrophil elastase 2 at 30 uM relative to control
[7] = biological target: C-X-C chemokine receptor type 2 (Homo sapiens) (UniProt P25025); experiment: Inhibition of human CXCR2 at 10 uM relative to control
[8] = biological target: Muscarinic acetylcholine receptor M4 (Homo sapiens) (UniProt P08173); experiment: Inhibition of human muscarinic M4 receptor at 10 uM relative to control
[9] = biological target: Beta-1 adrenergic receptor (Homo sapiens) (UniProt P08588); experiment: Inhibition of human beta1 adrenergic receptor at 10 uM relative to control
[10] = biological target: Neuromedin-K receptor (Homo sapiens) (UniProt P29371); experiment: Inhibition of human NK3 receptor at 10 uM relative to control
Neuromedin-K receptor (Homo sapiens), sequence (P29371 whole entry): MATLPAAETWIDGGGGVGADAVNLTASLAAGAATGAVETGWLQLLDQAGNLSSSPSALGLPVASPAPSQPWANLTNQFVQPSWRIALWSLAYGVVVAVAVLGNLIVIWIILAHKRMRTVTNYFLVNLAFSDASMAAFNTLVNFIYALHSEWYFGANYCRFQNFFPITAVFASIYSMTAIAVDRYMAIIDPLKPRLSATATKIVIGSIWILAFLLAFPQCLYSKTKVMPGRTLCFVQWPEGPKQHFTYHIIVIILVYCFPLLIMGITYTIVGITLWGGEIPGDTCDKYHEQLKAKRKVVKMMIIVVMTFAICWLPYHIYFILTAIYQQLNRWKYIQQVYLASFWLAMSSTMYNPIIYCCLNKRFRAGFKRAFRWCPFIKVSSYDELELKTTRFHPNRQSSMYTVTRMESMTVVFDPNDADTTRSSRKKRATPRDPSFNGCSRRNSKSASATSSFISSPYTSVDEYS

Oryctolagus cuniculus [11] = species: Oryctolagus cuniculus; experiment: Inhibition of rabbit monoamine transporter at 10 uM relative to control
[12] = biological target: Somatostatin receptor type 5 (Homo sapiens) (UniProt P35346); experiment: Inhibition of human SST5 receptor at 10 uM relative to control
Somatostatin receptor type 5 (Homo sapiens), sequence (P35346 whole entry): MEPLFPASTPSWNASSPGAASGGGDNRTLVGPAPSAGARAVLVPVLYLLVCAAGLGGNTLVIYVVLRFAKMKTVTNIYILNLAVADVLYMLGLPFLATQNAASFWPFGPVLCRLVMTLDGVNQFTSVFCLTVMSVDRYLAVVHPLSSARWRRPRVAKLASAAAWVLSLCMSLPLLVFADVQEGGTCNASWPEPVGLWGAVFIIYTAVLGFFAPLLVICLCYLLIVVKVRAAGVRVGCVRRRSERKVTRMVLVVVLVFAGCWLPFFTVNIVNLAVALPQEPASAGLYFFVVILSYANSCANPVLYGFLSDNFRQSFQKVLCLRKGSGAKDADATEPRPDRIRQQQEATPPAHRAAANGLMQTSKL

[13] = biological target: Adenosine receptor A1 (Homo sapiens) (UniProt P30542); experiment: Inhibition of human adenosine A1 receptor at 10 uM relative to control
Rattus norvegicus [14] = species: Rattus norvegicus; experiment: Inhibition of rat GABA transporter at 10 uM relative to control
D(3) dopamine receptor [15] = biological target: T1, D(3) dopamine receptor (Homo sapiens, UniProt P35462); experiment: Inhibition of human dopamine D3 receptor at 1 uM relative to control
T1 sequence (P35462 whole entry): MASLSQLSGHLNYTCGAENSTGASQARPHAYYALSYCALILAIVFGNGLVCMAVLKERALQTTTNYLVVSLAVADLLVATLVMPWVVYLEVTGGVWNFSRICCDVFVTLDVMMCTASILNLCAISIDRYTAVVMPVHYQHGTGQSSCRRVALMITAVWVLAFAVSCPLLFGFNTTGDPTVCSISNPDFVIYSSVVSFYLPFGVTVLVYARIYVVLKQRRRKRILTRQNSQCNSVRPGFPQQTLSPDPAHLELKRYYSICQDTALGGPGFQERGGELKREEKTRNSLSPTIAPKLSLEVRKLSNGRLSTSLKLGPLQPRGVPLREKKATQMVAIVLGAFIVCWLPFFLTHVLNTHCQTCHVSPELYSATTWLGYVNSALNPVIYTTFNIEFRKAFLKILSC

Rattus norvegicus [16] = species: Rattus norvegicus; experiment: Inhibition of rat strychnine-sensitive glycine receptor at 10 uM relative to control
[17] = biological target: Histamine H4 receptor (Homo sapiens) (UniProt Q9H3N8); experiment: Inhibition of human histamine H4 receptor at 10 uM relative to control
[18] = biological target: Mitogen-activated protein kinase 3 (Homo sapiens) (UniProt P27361); experiment: Inhibition of human MAPK3 at 100 uM relative to control
[19] = biological target: Substance-P receptor (Homo sapiens) (UniProt P25103); experiment: Inhibition of human NK1 receptor at 10 uM relative to control
Oryctolagus cuniculus [20] = species: Oryctolagus cuniculus; experiment: Inhibition of rabbit monoamine transporter at 1 uM relative to control
[21] = biological target: Cysteinyl leukotriene receptor 1 (Homo sapiens) (UniProt Q9Y271); experiment: Inhibition of human CysLT1 receptor at 10 uM relative to control
Cysteinyl leukotriene receptor 1 (Homo sapiens), sequence (Q9Y271 whole entry): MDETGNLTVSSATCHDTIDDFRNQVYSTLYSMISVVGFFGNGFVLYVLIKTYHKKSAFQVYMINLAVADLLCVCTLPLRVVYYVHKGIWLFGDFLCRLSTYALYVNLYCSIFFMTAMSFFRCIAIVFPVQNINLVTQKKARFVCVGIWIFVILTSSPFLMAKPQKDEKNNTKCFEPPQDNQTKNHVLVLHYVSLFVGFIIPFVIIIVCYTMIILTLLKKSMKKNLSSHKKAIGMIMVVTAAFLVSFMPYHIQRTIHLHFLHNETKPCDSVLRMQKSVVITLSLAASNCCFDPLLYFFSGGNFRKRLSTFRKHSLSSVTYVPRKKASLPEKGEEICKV

[22] = biological target: T2, 5-hydroxytryptamine receptor 1A (Homo sapiens) (UniProt P08908); experiment: Inhibition of human 5-HT1A receptor at 0.1 uM relative to control
T2 sequence (whole entry): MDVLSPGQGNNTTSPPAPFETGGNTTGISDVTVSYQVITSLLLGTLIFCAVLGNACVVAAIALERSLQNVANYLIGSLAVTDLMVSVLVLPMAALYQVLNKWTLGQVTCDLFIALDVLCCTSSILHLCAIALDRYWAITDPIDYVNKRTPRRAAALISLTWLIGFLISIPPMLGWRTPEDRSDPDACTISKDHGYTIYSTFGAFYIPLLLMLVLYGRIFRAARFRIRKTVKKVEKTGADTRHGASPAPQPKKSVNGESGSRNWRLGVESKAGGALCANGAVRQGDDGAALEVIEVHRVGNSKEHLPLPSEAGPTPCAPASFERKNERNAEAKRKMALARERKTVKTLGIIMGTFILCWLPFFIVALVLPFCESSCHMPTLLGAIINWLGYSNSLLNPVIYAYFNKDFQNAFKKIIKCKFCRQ

[23] = biological target: cGMP-specific 3',5'-cyclic phosphodiesterase (Homo sapiens) (UniProt O76074); experiment: Inhibition of human PDE5 at 100 uM relative to control
D(3) dopamine receptor [24] = biological target: T1, D(3) dopamine receptor; experiment: Inhibition of human dopamine D3 receptor at 0.1 uM relative to control
Cavia porcellus = species: Cavia porcellus; experiment: Inhibition of guinea pig adenosine transporter at 10 nM relative to control
[25] = biological target: Interstitial collagenase (Homo sapiens) (UniProt P03956); experiment: Inhibition of human MMP-1 at 10 uM relative to control
Caspase-7 (Homo sapiens) = Caspase-7 (Homo sapiens) (UniProt P55210); experiment: Inhibition of human caspase 7 at 10 uM relative to control
[26] = biological target: Beta-3 adrenergic receptor (Homo sapiens) (UniProt P13945); experiment: Inhibition of human beta3 adrenergic receptor at 10 uM relative to control
[27] = biological target: Vasopressin V1a receptor (Homo sapiens) (UniProt P37288); experiment: Inhibition of human V1A receptor at 10 uM relative to control
[28] = biological target: 5-hydroxytryptamine receptor 2B (Homo sapiens, UniProt P41595); experiment: Inhibition of human 5-HT2B receptor at 0.1 uM relative to control
5-hydroxytryptamine receptor 2B, sequence (P41595 whole entry): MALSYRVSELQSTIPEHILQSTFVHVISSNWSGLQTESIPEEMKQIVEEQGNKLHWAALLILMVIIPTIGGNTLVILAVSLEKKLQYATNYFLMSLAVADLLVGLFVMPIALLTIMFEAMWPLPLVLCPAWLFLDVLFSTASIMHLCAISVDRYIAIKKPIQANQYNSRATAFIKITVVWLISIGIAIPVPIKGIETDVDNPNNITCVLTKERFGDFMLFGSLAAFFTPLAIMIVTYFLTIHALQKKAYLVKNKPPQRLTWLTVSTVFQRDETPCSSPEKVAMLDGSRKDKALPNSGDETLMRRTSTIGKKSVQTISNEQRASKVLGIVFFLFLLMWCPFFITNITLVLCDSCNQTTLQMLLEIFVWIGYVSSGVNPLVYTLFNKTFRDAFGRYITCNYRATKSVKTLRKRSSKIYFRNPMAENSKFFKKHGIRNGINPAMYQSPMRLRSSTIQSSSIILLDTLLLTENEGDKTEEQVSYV

[29] = biological target: 5-hydroxytryptamine receptor 1B (Rattus norvegicus) (UniProt P28564); experiment: Inhibition of rat 5-HT1B receptor at 1 uM relative to control
[30] = biological target: Epidermal growth factor receptor (Homo sapiens) (UniProt P00533); experiment: Inhibition of human EGF receptor at 10 uM relative to control
Epidermal growth factor receptor (Homo sapiens), sequence (P00533 whole entry): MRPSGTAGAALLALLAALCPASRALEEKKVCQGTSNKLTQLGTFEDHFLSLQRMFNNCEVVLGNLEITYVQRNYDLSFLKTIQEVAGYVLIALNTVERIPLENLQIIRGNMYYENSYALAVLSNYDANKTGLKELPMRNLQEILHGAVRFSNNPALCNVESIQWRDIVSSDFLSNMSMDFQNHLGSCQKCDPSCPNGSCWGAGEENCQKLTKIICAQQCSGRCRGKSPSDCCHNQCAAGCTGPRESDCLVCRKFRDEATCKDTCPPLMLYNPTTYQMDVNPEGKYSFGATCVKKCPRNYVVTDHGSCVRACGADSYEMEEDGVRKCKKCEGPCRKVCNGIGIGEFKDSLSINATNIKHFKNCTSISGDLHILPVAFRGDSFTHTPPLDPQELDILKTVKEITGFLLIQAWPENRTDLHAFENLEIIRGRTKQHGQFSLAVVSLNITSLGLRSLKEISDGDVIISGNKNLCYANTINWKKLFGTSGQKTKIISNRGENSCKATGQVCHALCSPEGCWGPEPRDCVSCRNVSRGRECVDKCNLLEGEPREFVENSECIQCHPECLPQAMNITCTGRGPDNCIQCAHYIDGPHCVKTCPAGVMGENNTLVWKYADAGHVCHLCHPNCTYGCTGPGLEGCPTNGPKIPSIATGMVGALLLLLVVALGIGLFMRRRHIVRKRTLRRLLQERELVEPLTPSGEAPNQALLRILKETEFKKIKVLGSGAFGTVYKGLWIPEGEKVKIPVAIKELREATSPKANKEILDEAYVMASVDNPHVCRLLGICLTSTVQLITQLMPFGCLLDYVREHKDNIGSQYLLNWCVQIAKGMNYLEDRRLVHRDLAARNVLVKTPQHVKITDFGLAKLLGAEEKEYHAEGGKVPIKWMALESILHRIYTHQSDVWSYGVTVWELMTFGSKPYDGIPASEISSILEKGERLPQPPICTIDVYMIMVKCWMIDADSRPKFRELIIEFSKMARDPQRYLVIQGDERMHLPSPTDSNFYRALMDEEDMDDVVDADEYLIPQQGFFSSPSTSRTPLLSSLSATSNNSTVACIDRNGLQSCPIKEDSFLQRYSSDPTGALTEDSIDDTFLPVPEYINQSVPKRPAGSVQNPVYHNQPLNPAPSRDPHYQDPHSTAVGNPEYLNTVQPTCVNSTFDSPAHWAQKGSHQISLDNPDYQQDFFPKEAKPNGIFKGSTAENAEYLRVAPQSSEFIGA

[31] = biological target: Endothelin-1 receptor (Homo sapiens) (UniProt P25101); experiment: Inhibition of human ETA receptor at 10 uM relative to control
[32] = biological target: Alpha-2B adrenergic receptor (Homo sapiens) (UniProt P18089); experiment: Inhibition of human alpha2B adrenergic receptor at 10 uM relative to control
[33] = biological target: C-C chemokine receptor type 5 (Homo sapiens) (UniProt P51681); experiment: Inhibition of human CCR5 at 10 uM relative to control
C-C chemokine receptor type 5 (Homo sapiens), sequence (P51681 whole entry, looked up): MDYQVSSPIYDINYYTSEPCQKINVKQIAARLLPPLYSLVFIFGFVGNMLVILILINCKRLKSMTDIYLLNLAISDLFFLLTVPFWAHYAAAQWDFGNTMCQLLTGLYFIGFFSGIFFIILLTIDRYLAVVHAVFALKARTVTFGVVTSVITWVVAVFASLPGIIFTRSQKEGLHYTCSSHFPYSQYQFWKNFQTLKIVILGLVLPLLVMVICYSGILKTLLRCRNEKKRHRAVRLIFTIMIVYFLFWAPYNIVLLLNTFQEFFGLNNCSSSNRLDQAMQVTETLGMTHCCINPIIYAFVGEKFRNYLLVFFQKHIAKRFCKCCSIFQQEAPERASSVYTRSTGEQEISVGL

[34] = biological target: cGMP-dependent 3',5'-cyclic phosphodiesterase (Homo sapiens) (UniProt O00408); experiment: Inhibition of human PDE2 at 100 uM relative to control
cGMP-dependent 3',5'-cyclic phosphodiesterase (Homo sapiens), sequence (O00408 whole entry): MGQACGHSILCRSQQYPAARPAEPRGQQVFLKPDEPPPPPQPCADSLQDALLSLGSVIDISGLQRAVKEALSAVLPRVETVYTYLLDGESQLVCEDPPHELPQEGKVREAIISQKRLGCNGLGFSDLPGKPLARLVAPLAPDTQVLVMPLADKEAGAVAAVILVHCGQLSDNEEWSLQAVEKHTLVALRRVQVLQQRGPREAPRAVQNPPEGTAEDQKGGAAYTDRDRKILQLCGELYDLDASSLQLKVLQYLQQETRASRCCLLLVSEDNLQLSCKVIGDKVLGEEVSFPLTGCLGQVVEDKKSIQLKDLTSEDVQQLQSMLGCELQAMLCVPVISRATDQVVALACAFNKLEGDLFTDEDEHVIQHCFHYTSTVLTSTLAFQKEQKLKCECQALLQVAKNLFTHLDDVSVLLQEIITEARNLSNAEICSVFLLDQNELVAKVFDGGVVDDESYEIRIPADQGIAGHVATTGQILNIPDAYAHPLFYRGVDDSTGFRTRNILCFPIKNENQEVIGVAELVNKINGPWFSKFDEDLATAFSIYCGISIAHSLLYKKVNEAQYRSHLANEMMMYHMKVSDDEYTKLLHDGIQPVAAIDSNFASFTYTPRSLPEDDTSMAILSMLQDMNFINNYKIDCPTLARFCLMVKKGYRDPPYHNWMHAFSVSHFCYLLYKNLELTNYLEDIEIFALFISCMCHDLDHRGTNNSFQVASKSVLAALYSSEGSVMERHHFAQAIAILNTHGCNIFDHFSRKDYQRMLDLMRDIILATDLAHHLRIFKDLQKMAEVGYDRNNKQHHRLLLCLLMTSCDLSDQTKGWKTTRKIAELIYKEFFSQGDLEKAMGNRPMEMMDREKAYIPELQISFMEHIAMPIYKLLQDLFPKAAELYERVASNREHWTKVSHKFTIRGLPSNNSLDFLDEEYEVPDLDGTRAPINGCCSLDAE

[35] = biological target: Cathepsin G (Homo sapiens) (UniProt P08311); experiment: Inhibition of human cathepsin G at 10 uM relative to control
Cricetinae = experiment: Inhibition of hamster ATP-sensitive potassium channel at 10 uM relative to control
Bos taurus = species: Bos taurus; experiment: Inhibition of bovine PDE1 at 100 uM relative to control
[36] = biological target: Tyrosine 3-monooxygenase (Rattus norvegicus) (UniProt P04177); experiment: Inhibition of rat tyrosine hydroxylase at 10 uM relative to control

- inhibition [1]: 14%
- inhibition [2]: 5%
- inhibition [3]: 8%
- inhibition [4]: 23%
- inhibition [5]: 0%
- inhibition [6]: -2%
- inhibition [7]: 0%
- inhibition [8]: 7%
- inhibition [9]: 9%
- inhibition [10]: 13%
- inhibition (Oryctolagus cuniculus [11]): 52%
- inhibition [12]: 14%
- inhibition [13]: 22%
- inhibition (Rattus norvegicus [14]): 3%
- inhibition (D(3) dopamine receptor [15]): 19%
- inhibition (Rattus norvegicus [16]): -5%
- inhibition [17]: 9%
- inhibition [18]: 10%
- inhibition [19]: 26%
- inhibition (Oryctolagus cuniculus [20]): 20%
- inhibition [21]: 9%
- inhibition [22]: 10%
- inhibition [23]: -8%
- inhibition (D(3) dopamine receptor [24]): 3%
- inhibition (Cavia porcellus): 2%
- inhibition [25]: 4%
- inhibition (Caspase-7 (Homo sapiens)): 1%
- inhibition [26]: 24%
- inhibition [27]: 0%
- inhibition [28]: 6%
- inhibition [29]: 30%
- inhibition [30]: 10%
- inhibition [31]: 4%
- inhibition [32]: 34%
- inhibition [33]: 11%
- inhibition [34]: 4%
- inhibition [35]: -8%
- inhibition (Cricetinae): 0%
- inhibition (Bos taurus): -3%
- inhibition [36]: -3%
SMILES: COc1ccc(CNC(=O)c2cc(-c3cc(Cl)cc(Cl)c3)cnc2-c2cccnc2)cc1OC
